Legend:
PDK1 kinase = molecular target: T1, PDK1 kinase (Homo sapiens, UniProt O15530); assay: PDK1 Kinase Alpha Screen Assay; type: biochemical; conditions: PDK1 Kinase Alpha Screen Assay; read-out: PDK1 IC50
T1 sequence (O15530 1-556): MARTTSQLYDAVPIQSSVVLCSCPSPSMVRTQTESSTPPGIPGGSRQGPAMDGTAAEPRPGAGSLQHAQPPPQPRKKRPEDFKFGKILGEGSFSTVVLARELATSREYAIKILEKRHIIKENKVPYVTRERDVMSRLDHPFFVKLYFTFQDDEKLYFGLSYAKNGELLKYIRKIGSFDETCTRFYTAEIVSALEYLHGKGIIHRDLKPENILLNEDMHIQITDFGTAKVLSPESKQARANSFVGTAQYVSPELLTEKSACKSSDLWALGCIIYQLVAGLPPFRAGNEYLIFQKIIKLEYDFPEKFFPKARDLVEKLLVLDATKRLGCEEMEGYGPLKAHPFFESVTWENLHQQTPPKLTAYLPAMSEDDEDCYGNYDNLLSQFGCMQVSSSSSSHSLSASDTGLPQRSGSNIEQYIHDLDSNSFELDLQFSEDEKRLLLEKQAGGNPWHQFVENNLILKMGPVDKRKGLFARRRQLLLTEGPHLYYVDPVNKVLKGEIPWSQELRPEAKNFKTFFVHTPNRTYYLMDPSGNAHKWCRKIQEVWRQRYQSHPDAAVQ
Method in brief: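 Kinase inhibition measured as loss of AlphaScreen signal from antibody recognition of phosphorylated biotin-PDK1-4 peptide. Reactions contain 10 uM ATP and 50 nM peptide, run 3-18 hours before EDTA quench and overnight bead development at room temperature.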

A2780 cells = assay: Cell Proliferation Assay (Cell Titer Glo), A2780; type: cell-based; conditions: Homo sapiens; cell proliferation, A2780 cells; read-out: CPEC50 A2780
Method in brief: (§1)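 Following a 3-day compound exposure (37° C., 5% CO2) of A2780 or PC3MM cells plated at 1000 per well, viability was measured by Cell Titer Glo luminescence in fresh medium, read 10 min after reagent addition.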

PC3MM cells = assay: Cell Proliferation Assay (Cell Titer Glo), PC3MM; type: cell-based; conditions: cell proliferation, PC3MM cells; read-out: CPEC50 PC3MM
Method in brief: as §1

Row | IC50 (PDK1 kinase) [µM] | EC50 (A2780 cells) [µM] | EC50 (PC3MM cells) [µM] | Structure (SMILES)
1 | < 5 | < 5 | < 5 | NS(=O)(=O)c1ccc(Nc2ncc3ccc(-c4cn[nH]c4)cc3n2)cc1 [Compound 792, 4-(7-(1H-pyrazol-4-yl)quinazolin-2-ylamino)benzenesulfonamide]
2 | < 5 | < 5 | < 5 | NS(=O)(=O)c1ccc(Nc2ncc3ccc(-c4cccnc4)cc3n2)cc1 [Compound 793, 4-(7-(pyridin-3-yl)quinazolin-2-ylamlno)benzenesulfonamide]
3 | < 5 | < 5 | < 5 | CNC(=O)c1ccc(Nc2ncc3cccc(OC4CCN(C(C)C)CC4)c3n2)cc1 [Compound 796, 4-(8-(1-isopropylpiperidin-4-yloxy)quinazolin-2-ylamino)-N-methylbenzamide]
4 | < 5 | 5 to 10 | < 5 | NS(=O)(=O)c1ccc(Nc2ncc3ccc(-c4ccc(C(=O)N5CCOCC5)cc4)cc3n2)cc1 [Compound 802, 4-(7-(4-(morpholine-4-carbonyl)phenyl)quinazolin-2-ylamino)benzenesulfonamide]
5 | < 5 | 5 to 10 | < 5 | NS(=O)(=O)c1ccc(Nc2ncc3cccc(C(=O)NC4CCNCC4)c3n2)cc1 [Compound 805, N-(piperidin-4-yl)-2-(4-sulfamoylphenylamino)quinazoline-8-carboxamide]
6 | < 5 | 5 to 10 | < 5 | CN(C)[C@H]1CCN(C(=O)c2cccc3cnc(Nc4ccc(S(N)(=O)=O)cc4)nc23)C1 [Compound 806, (S)-4-(8-(3-(dimethylamino)pyrrolidine-1-carbonyl)quinazolin-2-ylamino)benzenesulfonamide]
7 | < 5 | 5 to 10 | < 5 | NS(=O)(=O)c1ccc(Nc2ncc3cccc(C(=O)N4CCNC(=O)C4)c3n2)cc1 [Compound 808, 4-(8-(3-oxopiperazine-1-carbonyl)quinazolin-2-ylamino)benzenesulfonamide]
8 | < 5 | 5 to 10 | < 5 | O=S(=O)(NCCN1CCCC1)c1cccc(Nc2ncc3cccc(OC4CCNCC4)c3n2)c1 [Compound 811, 3-(8-(piperidin-4-yloxy)quinazolin-2-ylamino)-N-(2-(pyrrolidin-1-yl)ethyl)benzenesulfonamide]
9 | < 5 | < 5 | < 5 | NS(=O)(=O)c1ccc(Nc2ncc3ccc(Nc4ccc5cn[nH]c5c4)cc3n2)cc1 [Compound 815, 4-(7-(1H-indazol-6-ylamino)quinazolin-2-ylamino)benzenesulfonamide]
10 | < 5 | < 5 | < 5 | CCN1CCC(Oc2cccc3cnc(Nc4ccc(S(N)(=O)=O)cc4)nc23)CC1 [Compound 817, 4-(8-(1-ethylpiperidin-4-yloxy)quinazolin-2-ylamino)benzenesulfonamide]
11 | < 5 | < 5 | < 5 | Nc1ncc(-c2cccc3cnc(Nc4ccc(S(N)(=O)=O)cc4)nc23)cn1 [Compound 823, 4-(8-(2-aminopyrimidin-5-yl)quinazolin-2-ylamino)benzenesulfonamide]
12 | < 5 | < 5 | < 5 | NS(=O)(=O)c1ccc(Nc2ncc3cccc(-c4ccc(N5CCOCC5)nc4)c3n2)cc1 [Compound 826, 4-(8-(6-morpholinopyridin-3-yl)quinazolin-2-ylamino)benzenesulfonamide]
13 | < 5 | < 5 | < 5 | NS(=O)(=O)c1ccc(Nc2ncc3cccc(-c4ccc(N5CCNC(=O)C5)nc4)c3n2)cc1 [Compound 828, 4-(8-(6-(3-oxopiperazin-1-yl)pyridin-3-yl)quinazolin-2-ylamino)benzenesulfonamide]

The next lines start with the molecule.

Row | Structure (SMILES) | IC50 (PDK1 kinase) [µM] | EC50 (A2780 cells) [µM] | EC50 (PC3MM cells) [µM]
14 | CN1CCN(C(=O)c2ccc3cnc(Nc4ccc(S(N)(=O)=O)cc4)nc3c2)CC1 [Compound 798, 4-(7-(4-methylpiperazine-1-carbonyl)quinazolin-2-ylamino)benzenesulfonamide] | 10 to 25 | 5 to 10 | 10 to 25
15 | COc1cncc(-c2ccc3cnc(Nc4ccc(S(N)(=O)=O)cc4)nc3c2)c1 [Compound 801, 4-(7-(5-methoxypyridin-3-yl)quinazolin-2-ylamino)benzenesulfonamide] | < 5 | < 5 | < 5
16 | NS(=O)(=O)c1ccc(Nc2ncc3cccc(C(=O)NC4CCCNC4)c3n2)cc1 (stereo not drawn) [Compound 803, N-(piperidin-3-yl)-2-(4-sulfamoylphenylamino)quinazoline-8-carboxamide] | < 5 | 5 to 10 | < 5
17 | CN(C)[C@@H]1CCN(C(=O)c2cccc3cnc(Nc4ccc(S(N)(=O)=O)cc4)nc23)C1 [Compound 804, (R)-4-(8-(3-(dimethylamino)pyrrolidine-1-carbonyl)quinazolin-2-ylamino)benzenesulfonamide] | < 5 | 5 to 10 | < 5
18 | NS(=O)(=O)c1ccc(Nc2ncc3cccc(C(=O)N[C@H]4CN5CCC4CC5)c3n2)cc1 [Compound 807, (R)-N-(quinuclidin-3-yl)-2-(4-sulfamoylphenylamino)quinazoline-8-carboxamide] | 5 to 10 | 5 to 10 | 5 to 10
19 | NS(=O)(=O)c1ccc(Nc2ncc3cccc(C(=O)N[C@@H]4CN5CCC4CC5)c3n2)cc1 [Compound 809, (S)-N-(quinuclidin-3-yl)-2-(4-sulfamoylphenylamino)quinazoline-8-carboxamide] | < 5 | 5 to 10 | < 5
20 | O=S(=O)(NC1CC1)c1cccc(Nc2ncc3cccc(OC4CCNCC4)c3n2)c1 [Compound 812, N-cyclopropyl-3-(8-(piperidin-4-yloxy)quinazolin-2-ylamino)benzenesulfonamide] | < 5 | < 5 | < 5
21 | NS(=O)(=O)c1ccc(Nc2ncc3ccc(-c4ccc5cn[nH]c5c4)cc3n2)cc1 [Compound 813, 4-(7-(1H-indazol-6-yl)quinazolin-2-ylamino)benzenesulfonamide] | < 5 | < 5 | < 5
22 | COc1ncc(-c2ccc3cnc(Nc4ccc(S(N)(=O)=O)cc4)nc3c2)cn1 [Compound 814, 4-(7-(2-methoxypyrimidin-5-yl)quinazolin-2-ylamino)benzenesulfonamide] | < 5 | < 5 | < 5
23 | CC(C)N1CC(Oc2cccc3cnc(Nc4ccc(S(N)(=O)=O)cc4)nc23)C1 [Compound 818, 4-(8-(1-isopropylazetidin-3-yloxy)quinazolin-2-ylamino)benzenesulfonamide] | < 5 | < 5 | < 5
24 | NS(=O)(=O)c1ccc(Nc2ncc3cccc(OC4CNC4)c3n2)cc1 [Compound 819, 4-(8-(azetidin-3-yloxy)quinazolin-2-ylamino)benzenesulfonamide] | < 5 | 5 to 10 | < 5
25 | NS(=O)(=O)c1ccc(Nc2ncc3ccc(C(=O)N4CCCC4)cc3n2)cc1 [Compound 820, 4-(7-(pyrrolidine-1-carbonyl)quinazolin-2-ylamino)benzenesulfonamide] | < 5 | < 5 | < 5
26 | Nc1ccc(-c2cccc3cnc(Nc4ccc(S(N)(=O)=O)cc4)nc23)cn1 [Compound 821, 4-(8-(6-aminopyridin-3-yl)quinazolin-2-ylamino)benzenesulfonamide] | < 5 | < 5 | < 5
27 | CN1CCN(C(=O)c2cccc(-c3cccc4cnc(Nc5ccc(S(N)(=O)=O)cc5)nc34)c2)CC1 [Compound 822, 4-(8-(3-(4-methylpiperazine-1-carbonyl)phenyl)quinazolin-2-ylamino)benzenesulfonamide] | < 5 | < 5 | < 5
28 | CN1CCN(C(=O)c2ccc(-c3cccc4cnc(Nc5ccc(S(N)(=O)=O)cc5)nc34)cc2)CC1 [Compound 824, 4-(8-(4-(4-methylpiperazine-1-carbonyl)phenyl)quinazolin-2-ylamino)benzenesulfonamide] | < 5 | < 5 | < 5
29 | CC(=O)NCCNc1ccc(-c2cccc3cnc(Nc4ccc(S(N)(=O)=O)cc4)nc23)cn1 [Compound 829, N-(2-(5-(2-(4-sulfamoylphenylamino)quinazolin-8-yl)pyridin-2-ylamino)ethyl)acetamide] | < 5 | < 5 | < 5
30 | CC(C)Nc1ccc(-c2cccc3cnc(Nc4ccc(S(N)(=O)=O)cc4)nc23)cn1 [Compound 831, 4-(8-(6-(isopropylamino)pyridin-3-yl)quinazolin-2-ylamino)benzenesulfonamide] | < 5 | < 5 | < 5

Source: US7932262B2 (Novartis AG, priority 2006, dated 2011)
